Laboratory results taken from patent US12509431B2, “1,4-dihydroquinazolinone compounds and uses thereof” (Edgewise Therapeutics, Inc., priority 2022, dated 2025).

Experiments:
Type in all cases: biochemical
Porcine Atria myofibrils = assay: Myofibril ATPase assay (PK/LDH NADH-coupled), atria myofibrils
Outline: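 Porcine atrial myofibril ATPase followed via PK/LDH-coupled NADH depletion, absorbance at 340 nm read every 1.5-2 min over 75 min. Slopes (mAU/min) normalized to vehicle as 100% and fit to a 4-parameter logistic; EC25% derived, plus EC50% for inhibitors.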

[1] = test system: Rabbit Skeletal myofibrils (rabbit psoas muscle); assay: Myofibril ATPase assay (PK/LDH NADH-coupled), skeletal myofibrils
Outline: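 Rabbit psoas myofibrils in pCa (PIPES/CaCl2/EGTA, pH 7.0) buffer; ADP coupled via PK/LDH to NADH loss, read at 340 nm every 1.5–2 min for 75 min. Slopes normalized to vehicle (100%) and fit to 4-parameter logistic for EC25, plus EC50 for inhibitors.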

[2] = target: T1, Porcine Ventricle myofibrils (left ventricle of Yucatan minipigs) (Sus scrofa, UniProt P79293); assay: Myofibril ATPase assay (PK/LDH NADH-coupled), ventricle myofibrils
T1 construct: Myofibrils from porcine cardiac muscle was isolated from the left ventricle of Yucatan minipigs; tissue Exemplar Genetics; host or cells: left ventricle of Yucatan minipigs
T1 sequence (P79293 whole entry): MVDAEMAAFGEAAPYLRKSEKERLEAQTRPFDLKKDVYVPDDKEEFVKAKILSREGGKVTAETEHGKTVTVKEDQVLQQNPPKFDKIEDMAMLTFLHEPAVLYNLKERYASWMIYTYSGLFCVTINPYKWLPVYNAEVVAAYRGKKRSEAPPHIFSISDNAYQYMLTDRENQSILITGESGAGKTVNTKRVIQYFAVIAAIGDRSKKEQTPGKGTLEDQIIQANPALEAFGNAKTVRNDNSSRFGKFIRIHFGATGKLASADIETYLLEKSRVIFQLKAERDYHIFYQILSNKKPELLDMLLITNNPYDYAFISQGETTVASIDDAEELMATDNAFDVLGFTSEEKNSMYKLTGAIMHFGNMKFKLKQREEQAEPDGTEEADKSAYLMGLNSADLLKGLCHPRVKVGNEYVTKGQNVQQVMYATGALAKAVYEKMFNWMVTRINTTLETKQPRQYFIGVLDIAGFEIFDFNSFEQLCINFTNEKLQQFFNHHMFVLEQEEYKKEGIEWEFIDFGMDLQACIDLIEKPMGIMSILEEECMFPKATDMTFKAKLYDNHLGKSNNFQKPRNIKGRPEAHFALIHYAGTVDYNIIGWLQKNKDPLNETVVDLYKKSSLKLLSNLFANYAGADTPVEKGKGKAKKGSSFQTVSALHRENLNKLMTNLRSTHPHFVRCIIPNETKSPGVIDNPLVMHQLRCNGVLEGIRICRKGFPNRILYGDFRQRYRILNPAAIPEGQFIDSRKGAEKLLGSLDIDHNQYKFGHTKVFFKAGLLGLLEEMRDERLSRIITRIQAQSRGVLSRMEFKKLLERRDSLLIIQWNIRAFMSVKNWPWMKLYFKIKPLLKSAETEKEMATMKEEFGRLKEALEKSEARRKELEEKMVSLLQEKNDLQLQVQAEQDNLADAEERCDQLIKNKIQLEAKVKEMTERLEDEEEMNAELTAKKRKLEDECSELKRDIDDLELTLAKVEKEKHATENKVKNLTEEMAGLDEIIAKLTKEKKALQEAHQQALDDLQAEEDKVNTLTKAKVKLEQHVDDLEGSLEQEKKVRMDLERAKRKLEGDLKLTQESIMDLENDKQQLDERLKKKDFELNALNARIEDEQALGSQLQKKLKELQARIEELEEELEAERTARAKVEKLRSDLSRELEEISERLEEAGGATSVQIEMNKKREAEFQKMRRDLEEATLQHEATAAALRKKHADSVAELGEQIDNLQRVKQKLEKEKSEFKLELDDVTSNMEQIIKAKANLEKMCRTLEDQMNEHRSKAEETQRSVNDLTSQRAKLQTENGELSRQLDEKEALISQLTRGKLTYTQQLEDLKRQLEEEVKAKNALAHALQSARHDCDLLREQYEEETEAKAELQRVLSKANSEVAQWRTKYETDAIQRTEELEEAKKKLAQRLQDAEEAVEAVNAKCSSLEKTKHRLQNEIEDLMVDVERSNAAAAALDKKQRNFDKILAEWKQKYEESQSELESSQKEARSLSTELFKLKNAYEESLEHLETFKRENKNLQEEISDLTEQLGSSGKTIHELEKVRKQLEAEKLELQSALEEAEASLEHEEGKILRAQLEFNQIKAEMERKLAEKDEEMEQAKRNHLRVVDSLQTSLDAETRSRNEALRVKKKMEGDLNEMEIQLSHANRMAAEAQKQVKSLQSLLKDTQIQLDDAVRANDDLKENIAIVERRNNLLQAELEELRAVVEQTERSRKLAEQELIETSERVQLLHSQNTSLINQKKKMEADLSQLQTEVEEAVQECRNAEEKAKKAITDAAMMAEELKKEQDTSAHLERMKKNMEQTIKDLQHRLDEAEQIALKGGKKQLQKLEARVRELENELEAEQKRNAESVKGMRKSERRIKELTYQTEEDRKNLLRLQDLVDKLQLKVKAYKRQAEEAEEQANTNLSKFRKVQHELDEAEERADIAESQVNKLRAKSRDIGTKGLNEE
Outline: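 Yucatan minipig left-ventricle myofibrils; ATPase measured by PK/LDH-coupled NADH loss at 340 nm, read every 1.5-2 min for 75 min. Slopes normalized to vehicle (100%) and fit to 4-parameter logistic model; EC25 and, for inhibitors, EC50 calculated.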

SMILES | Porcine Atria IC25 (Porcine Atria myofibrils; Table 8) [µM] | Rabbit Psoas IC25 ([1]; Table 8) [µM] | Porcine Ventricle IC25 ([2]; Table 8) [µM] | Porcine Atria IC25 (Porcine Atria myofibrils; Table 7) [µM] | Rabbit Psoas IC25 ([1]; Table 7) [µM] | Porcine Ventricle IC25 ([2]; Table 7) [µM]
Cc1nc(C#N)cnc1[C@H](C)NC(=O)CN1C(=O)Nc2ccc(F)cc2C12CC2 [Compound B331] | 0.37 | 100.00 | 66.75 |  |  | 
C[C@H](NC(=O)CN1Cc2cc(F)cnc2NC1=O)c1ncc(F)cc1F [Compound N70] |  |  |  | 100.00 | 100 | 100
C[C@@H](NC(=O)CN1C(=O)Nc2cccnc2C12CC2)c1ccc(C#N)cn1 [Compound N16] |  |  |  | 0.60 | 1.645 | 100
C[C@H](NC(=O)CN1Cc2cc(F)ccc2NC1=O)c1ncccc1F [Compound B174] | 46.54 | 83 | 100 |  |  | 
C[C@@H](NC(=O)[C@H](C)N1Cc2c(ccc(F)c2F)NC1=O)c1ncc(C#N)cc1F [Compound B272] | 0.05 | 0.74 | 0.75 |  |  | 
Cc1ccc([C@H](C)NC(=O)CN2Cc3cc(F)ccc3NC2=O)c(F)c1 [Compound B210] | 0.18 | 0.1421 | 2.251 |  |  | 
C[C@H](NC(=O)CN1C(=O)Nc2ccc(F)c(F)c2C12CC2)c1ncc(C#N)cc1F [Compound B324] | 0.04 | 0.03 | 0.05 |  |  | 
C[C@H](NC(=O)CN1C(=O)Nc2ccc(F)c(F)c2C12CC2)c1ncc(C#N)cc1Cl [Compound B307] | 0.05 | 0.02 | 0.07 |  |  | 
COc1cccnc1[C@@H](C)NC(=O)CN1Cc2c(ccc(F)c2F)NC1=O [Compound B184] | 57.48 | 100 | 56.86 |  |  | 
C[C@H](NC(=O)CN1Cc2c(F)cc(C#N)cc2NC1=O)c1ccc(C#N)cc1F [Compound B11, N-[(1S)-1-(4-Cyano-2-fluorophenyl)ethyl]-2-(7-cyano-5-fluoro-2-oxo-1,4-dihydroquinazolin-3-yl)acetamide] | 100.00 | 49.64 | 100 |  |  | 
Cc1cccnc1[C@@H](C)NC(=O)CN1Cc2cc(F)ccc2NC1=O [Compound B192] | 100.00 | 100 | 100 |  |  | 
C[C@@H](NC(=O)CN1C(=O)Nc2ccc(F)cc2C12CC2)c1ccc(C#N)cn1 [Compound B137] | 0.12 | 0.1155 | 0.6995 |  |  | 
C[C@@H](C(=O)N[C@H](CO)c1ncc(F)cc1F)N1Cc2c(Cl)cccc2NC1=O [Compound B167] | 100.00 | 100 | 100 |  |  | 
O=C(CN1Cc2c(ccc(F)c2F)NC1=O)N[C@H]1COCc2cc(F)cc(F)c21 [Compound B63] | 1.81 | 100 | 100 |  |  | 
Cc1c(F)cnc2c1CN(CC(=O)N[C@@H](C)c1ncc(F)cc1F)C(=O)N2 [Compound N53] |  |  |  | 100.00 | 100 | 100
Cc1cccc2c1C1(CC1)N(CC(=O)N[C@@H](C)c1cnc(C#N)cn1)C(=O)N2 [Compound B302] | 1.08 | 5.65 | 2.85 |  |  | 
C[C@H](NC(=O)CN1Cc2cc(C#N)ccc2NC1=O)c1ncc(F)cc1F [Compound B197] | 18.70 | 87.6 | 100 |  |  | 
C[C@H](NC(=O)CN1Cc2c(F)cc(F)cc2NC1=O)c1ccc(C#N)cc1F [Compound B43] | 0.04 | 0.0158 | 0.0473 |  |  | 

SMILES | Porcine Atria IC25 (Porcine Atria myofibrils; Table 8) [µM] | Rabbit Psoas IC25 ([1]; Table 8) [µM] | Porcine Ventricle IC25 ([2]; Table 8) [µM] | Porcine Atria IC25 (Porcine Atria myofibrils; Table 7) [µM] | Rabbit Psoas IC25 ([1]; Table 7) [µM] | Porcine Ventricle IC25 ([2]; Table 7) [µM]
O=C(CN1Cc2c(ccc(F)c2F)NC1=O)N[C@H]1CCc2cc(F)cnc21 (single isomer, unassigned) [Compound B351] | 100.00 | 100.00 | 100.00 |  |  | 
C[C@@H](NC(=O)C(C)(C)N1Cc2c(ccc(F)c2F)NC1=O)c1ncc(C#N)cc1F [Compound B266] | 0.05 | 0.95 | 1.38 |  |  | 
CC(NC(=O)CN1Cc2cc(F)ccc2NC1=O)c1ccccc1Br (stereo not drawn) [Compound B202] | 0.18 | 0.1741 | 1.035 |  |  | 
C[C@H](NC(=O)[C@H](C)N1Cc2nc(C#N)ccc2NC1=O)c1ccc(F)cc1F [Compound N45] |  |  |  | 14.99 | 100 | 100
C[C@H](NC(=O)CN1C(=O)Nc2ccccc2[C@H]1C)c1ccc(F)cc1F [Compound B155] | 0.43 | 0.0851 | 3.17 |  |  | 
Cc1cccc2c1C1(CC1)N(CC(=O)N[C@H](C)c1cnc(C#N)cn1)C(=O)N2 [Compound B301] | 4.28 | 2.52 | 14.90 |  |  | 
C[C@H](NC(=O)CN1C(=O)Nc2cccnc2[C@@H]1C)c1ccc(F)cc1F [Compound N78, N—((S)-1-(2,4-difluorophenyl)ethyl)-2-((S)-4-methyl-2-oxo-1,4-dihydropyrido [3,2-d]pyrimidin-3(2H)-yl)acetamide] |  |  |  | 26.68 | 11.14 | 31.94
C[C@H](NC(=O)[C@@H](Cc1ccccc1)N1Cc2nc(F)ccc2NC1=O)c1ccc(F)cc1F [Compound N97] |  |  |  | 100.00 | 90.25 | 100
C[C@@H](NC(=O)CN1Cc2c(F)cc(Cl)cc2NC1=O)c1ccc(C#N)cc1F [Compound B32] | 0.28 | 1.003 | 0.548 |  |  | 
C[C@H](NC(=O)[C@@H](C)N1Cc2c(ccnc2Br)NC1=O)c1ccc(F)cc1F [Compound N95] |  |  |  | 3.69 | 0.9565 | 5.968
N#Cc1cc(F)c2c(c1)OC[C@@H]2NC(=O)CN1Cc2c(ccnc2C(F)(F)F)NC1=O [Compound N6] |  |  |  | 2.82 | 2.918 | 38.22
C[C@@H]1c2ccccc2NC(=O)N1CC(=O)N[C@H](C)c1ncc(F)cc1F [Compound B158] | 100.00 | 18.11 | 100 |  |  | 
C[C@H](NC(=O)CN1C(=O)Nc2ccccc2[C@H]1C)c1ncc(F)cc1F [Compound B161] | 4.15 | 1.295 | 45.8 |  |  | 
COc1cccnc1[C@@H](C)NC(=O)CN1Cc2cc(F)ccc2NC1=O [Compound B186] | 100.00 | 100 | 100 |  |  | 
N#Cc1cnc2c(c1)CC[C@@H]2NC(=O)CN1C(=O)Nc2ccc(F)cc2C12CC2 [Compound B295] | 0.25 | 0.17 | 0.35 |  |  | 
C[C@H](NC(=O)CN1Cc2cc(C#N)ccc2NC1=O)c1ncc(C#N)cc1F [Compound B144, 2-(6-cyano-2-oxo-1,4-dihydroquinazolin-3-yl)-N-[(1S)-1-(5-cyano-3-fluoropyridin-2-yl)ethyl]acetamide] | 0.72 | 2.787 | 47.42 |  |  | 
C[C@H](NC(=O)CN1Cc2c(ccc(F)c2F)NC1=O)c1ncc(C2COC2)cn1 [Compound B283] | 0.90 | 100.00 | 6.49 |  |  | 
